Assay results from patent publication US20180015066A1, “DRUG COMPLEXES COMPRISING ALPHA-FETOPROTEIN” (UNIVERSITY HEALTH NETWORK, priority 2015, published 2018).

Tested on: cell lines carrying AFP receptor
Assay: Anti-cancer activities: in vitro antiproliferative assay (IC50)
Assay type: cell-based
Details: samples in PBS pH 7.4; concentration expressed as Pac or Pac-succinate; read-out: IC50 ± std. error (nM) for Pac or Pac-succinate

| Compound | IC50 [nM] |
| --- | --- |
| CC(=O)O[C@H]1C(=O)[C@@]2(C)[C@H]([C@H](OC(=O)c3ccccc3)[C@]3(O)C[C@H](OC(=O)[C@H](O)[C@@H](NC(=O)c4ccccc4)c4ccccc4)C(C)=C1C3(C)C)[C@]1(OC(C)=O)CO[C@@H]1C[C@@H]2O [Paclitaxel] | 3.4 ± 0.8 |
| paclitaxel succinate [Paclitaxel-Succinate] | 26.5 ± 11.3 |
